Where “and” joins values, the source holds several entries; their conditions need not be identical. Equal values may be shown once. Entries after “also recorded” stand apart in the source; their conditions may differ.
Legend:
[1] = tested on: MMP1 chromosome conformations; assay: MMP-1 3C quantification in HL-60 (acute myeloid leukaemia) cells treated with GSK864; type: cell-based
Method: (§1) MMP-1 3C quantification with no-fixation controls and a formaldehyde treated samples. The exemplary cell lines used in this application are: • (a) DBTRG-05MG (glioblastoma). • (b) HL-60 (acute myeloid leukaemia).
The HL60 cell lines have been treated with the IDH1 inhibitor GSK864 over 24 hrs and 48 hrs.

[2] = tested on: MMP1 chromosome conformations; assay: MMP-1 3C quantification in DBTRG-05MG (glioblastoma) cells treated with GSK864; type: cell-based
Method: as §1
These cell lines have been treated with the IDH1 inhibitor GSK864 over 24 hrs and 48 hrs.

MMP1 3C interaction = MMP1 3C interaction hydrolysis probe qPCR in BT142 cell line; conditions: BT142 cells, imatinib 1 μM
[3] = tested on: cKIT 3C interaction ORF3_4_54711719_54715167_54736749_54740853_FR; assay: cKIT 3C interaction PCR on imatinib treated BT142 cells; type: cell-based; conditions: 1 μm imatinib, 20 ng of template per well
Method: Example of novel data regarding the action of imatinib in the following imatinib responsive selected gene is described below. 20 ng of template was added to each well for samples treated with imatinib.
cKIT and exemplary data. The BT142 cells have been treated with 1 μm of imatinib. 20 ng of template was loaded into each well.
The product in well Cl has been confirmed as the cKIT interaction named above (ORF3_4_54711719_54715167_54736749_54740853_FR).

| Structure (SMILES) | Effect on MMP1 chromosome conformations (3C MMP1 copy number), in words ([1]; HL60 cell line, GSK864 1 μm, over 24 hrs and 48 hrs) | Cq ([1]; HL-60 cells, 48 hr GSK864) | Effect on MMP1 chromosome conformations (3C MMP1 copy number), in words ([2]; DBTRG cell line, GSK864 1 μm, over 24 hrs and 48 hrs) | Copy number in 20 ng ([2]; DBTRG cells, 24 hr, GSK 1 um, MMP1 3C) | MMP1 copy number (MMP1 3C interaction; 20 ng of template per well) | Cq (MMP1 3C interaction; MMP1 3C interaction) | cKIT 3C interaction in imatinib treated cells [3] |
| --- | --- | --- | --- | --- | --- | --- | --- |
| COc1c(C)cc(NC(=O)c2nn(Cc3ccc(F)cc3)c3c2CN(C(=O)c2ccc[nH]2)C[C@]3(C)C(N)=O)cc1C [GSK864] | quantitative differences; also recorded: binary quantitative difference; also recorded: direct action on 3C MMP1 copy number | 40.33 and 37.5 and 37.11 | binary difference; also recorded: direct action on 3C MMP1 copy number | NaN (NaN = 0 copies) |  |  |  |
| Cc1ccc(NC(=O)c2ccc(CN3CCN(C)CC3)cc2)cc1Nc1nccc(-c2cccnc2)n1 [Imatinib] |  |  |  |  | 37.22 and 26.43 and 31.45 | 35.64 and 36.15 and 35.89 | completely absent |
